In brackets after ≈: the same amount, converted by molar mass. Read-outs that look alike come from different tables or passages of the source.
Experiments:
[1] = test system: Staphylococcus aureus 10 B; experiment: in vitro antibacterial test (MIC); type: cell-based
[2] = test system: Staphylococcus aureus 2999i+p+; experiment: in vitro antibacterial test (MIC); type: cell-based
[3] = test system: Streptococcus pyogenes Aronson; experiment: in vitro antibacterial test (MIC); type: cell-based
[4] = test system: Streptococcus pneumoniae III/84; experiment: in vitro antibacterial test (MIC); type: cell-based
[5] = test system: Streptococcus faecalis D 3; experiment: in vitro antibacterial test (MIC); type: cell-based; settings: Enterococcus faecalis, D3
[6] = test system: Neisseria meningitidis 1316; experiment: in vitro antibacterial test (MIC); type: cell-based
[7] = test system: Neisseria gonorrhoeae 1317-4; experiment: in vitro antibacterial test (MIC); type: cell-based; settings: 13174
[8] = test system: Haemophilus influenzae NCTC 4560; experiment: in vitro antibacterial test (MIC); type: cell-based; settings: NCTC4560
[9] = test system: Escherichia coli 205; experiment: in vitro antibacterial test (MIC); type: cell-based
[10] = test system: Escherichia coli 205 R+TEM; experiment: in vitro antibacterial test (MIC); type: cell-based
[11] = test system: Escherichia coli 16; experiment: in vitro antibacterial test (MIC); type: cell-based
[12] = test system: Escherichia coli DC 2; experiment: in vitro antibacterial test (MIC); type: cell-based; settings: DC2; Escherichia coli DC 2, in vitro
From the text: (§1) Die Verbindungen der Formel I weisen wertvolle pharmakologische Eigenschaften auf, oder können als Zwischenprodukte zur Herstellung von solchen Verbindungen mit wertvollen pharmakologischen Eigenschaften verwendet werden. Verbindungen der Formel I, worin R1 Wasserstoff oder Methyl ist, Rz Hydroxybedeutet, R3 Carboxyl oder eine unter physiologischen Bedingungen spaltbare veresterte Carboxylgruppe bedeutet und R4 die unter Formel I angegebene Bedeutung hat, und pharmakologisch verwendbare Salze von solchen Verbindungen mit salzbildenden Gruppen haben antibakterielle Wirkungen. Beispielsweise sind sie in vitro gegen grampositive und gramnegative Kokken, z.B. Staphylococcus aureus, Streptococcus pyogenes, Streptococcus pneumoniae, Streptococcus faecalis, Neisseria meningitidis und Neisseria gonorrhoeae, und gegen gramnegative Stäbchenbakterien, wie Enterobacteriaceae, Haemophilus influenzae und Pseudomonas aeruginosa, und Anaerobier, z.B. Bacteroides sp., in minimalen Konzentrationen von ca. 0,01 bis ca. 64 µg/ml wirksam. In vivo, bei der systemischen Infektion der Maus, z.B. durch Staphylococcus aureus oder Streptococcus pyogenes, ergeben sich bei subkutaner oder oraler Applikation ED50 -Werte von ca. 0,3 bis ca. 30 mg/kg. Beispielsweise weisen Natrium-(5R,6S)-2-[3-(2-methyl-tetrazol-5-yl)-propyl]-6-hydroxymethyl-2-penem 3-carboxylat (Verbindung A) und (5R,65)-2-[3-(2-Methyl-1,3,4-oxadiazo1-5-yl)-propyl]-6-hydroxymethyl-2-penem-3-carbonsäure (Verbindung B) in dem genannten in-vitro-Test die folgenden Werte auf: […]

[13] = test system: Escherichia coli UB 1005; experiment: in vitro antibacterial test (MIC); type: cell-based; settings: UB1005; Escherichia coli UB 1005, in vitro
From the text: as §1

[14] = test system: Klebsiella pneumoniae 327; experiment: in vitro antibacterial test (MIC); type: cell-based
[15] = test system: Serratia marcescens 344; experiment: in vitro antibacterial test (MIC); type: cell-based
[16] = test system: Enterobacter cloacae P 99; experiment: in vitro antibacterial test (MIC); type: cell-based; settings: P99
[17] = test system: Proteus mirabilis 774; experiment: in vitro antibacterial test (MIC); type: cell-based
[18] = test system: Proteus mirabilis 1219; experiment: in vitro antibacterial test (MIC); type: cell-based
[19] = test system: Proteus rettgeri 856; experiment: in vitro antibacterial test (MIC); type: cell-based; settings: Providencia rettgeri
[20] = test system: Proteus morganii 2359; experiment: in vitro antibacterial test (MIC); type: cell-based; settings: Morganella morganii
[21] = test system: Proteus morganii 1518; experiment: in vitro antibacterial test (MIC); type: cell-based; settings: Morganella morganii
[22] = test system: Pseudomonas aeruginosa ATCC 12055; experiment: in vitro antibacterial test (MIC); type: cell-based; settings: ATCC12055
[23] = test system: Pseudomonas aeruginosa K 799/61; experiment: in vitro antibacterial test (MIC); type: cell-based; settings: K799/61
[24] = test system: Clostridium perfringens 194; experiment: microbe, parasite or virus in culture; type: cell-based
[25] = test system: Bacteroides fragilis L 01; experiment: in vitro antibacterial test (MIC); type: cell-based; settings: L01
[26] = test system: Staphylococcus aureus lOB; experiment: systemic infection of the mouse (ED50); type: in vivo, Maus; settings: sc
From the text: as §1, with “mg/kg.” for “mg/kg. Beispielsweise weisen Natrium-(5R,6S)-2-[3-(2-methyl-tetrazol-5-yl)-propyl]-6-hydroxymethyl-2-penem 3-carboxylat (Verbindung A) und (5R,65)-2-[3-(2-Methyl-1,3,4-oxadiazo1-5-yl)-propyl]-6-hydroxymethyl-2-penem-3-carbonsäure (Verbindung B) in dem genannten in-vitro-Test die folgenden Werte auf:”

In the case of Cn1nnc(CCCC2=C(C(=O)[O-])N3C(=O)[C@H](CO)[C@H]3S2)n1.[Na+] [Verbindung A, Natrium-(5R,6S)-2-[3-(2-methyl-tetrazol-5-yl)-propyl]-6-hydroxymethyl-2-penem 3-carboxylat], the MIC ([1]; Staphylococcus aureus, 10B) is reported as 0.2 µg/mL, the MIC ([2]; Staphylococcus aureus) is reported as 0.2 µg/mL and the MIC ([3]; Streptococcus pyogenes) is reported as 0.2 µg/mL. It also gave an MIC ([4]; Streptococcus pneumoniae) of 0.05 µg/mL, an MIC [5] of 32 µg/mL and an MIC ([6]; Neisseria meningitidis, 1316) of 0.01 µg/mL. It also gave an MIC ([7]; Neisseria gonorrhoeae) of 0.01 µg/mL, an MIC ([8]; Haemophilus influenzae) of 2 µg/mL and an MIC ([9]; Escherichia coli, 205) of 4 µg/mL. The MIC [10] was 8 µg/mL, the MIC ([11]; Escherichia coli, 16) was 32 µg/mL and the MIC [12] was 2 µg/mL. The MIC [13] was 8 µg/mL, the MIC ([14]; Klebsiella pneumoniae, 327) was 4 µg/mL and the MIC ([15]; Serratia marcescens, 344) was 64 µg/mL. It also gave an MIC [16] of 32 µg/mL, an MIC ([17]; Proteus mirabilis, 774) of 4 µg/mL and an MIC ([18]; Proteus mirabilis, 1219) of 8 µg/mL. The MIC [19]; 856 was 16 µg/mL, the MIC [20]; 2359 was 2 µg/mL and the MIC [21]; 1518 was 16 µg/mL. The MIC ([22]; Pseudomonas aeruginosa) was greater than 128 µg/mL, the MIC [23] was 2 µg/mL and the MIC [24] was 0.2 µg/mL. It also gave an MIC ([25]; Bacteroides fragilis) of 0.5 µg/mL and an ED50 ([26]; Staphylococcus aureus) of 3 to 10 mg/kg.
In the case of Cc1nnc(CCCC2=C(C(=O)O)N3C(=O)[C@H](CO)[C@H]3S2)o1 [Verbindung B, (5R,65)-2-[3-(2-Methyl-1,3,4-oxadiazo1-5-yl)-propyl]-6-hydroxymethyl-2-penem-3-carbonsäure], the MIC ([1]; Staphylococcus aureus 10 B, in vitro, read-out: MIC) is reported as 0.2 µg/mL (≈ 0.615 µM), the MIC ([2]; Staphylococcus aureus 2999i+p+, in vitro, read-out: MIC) is reported as 0.2 µg/mL (≈ 0.615 µM) and the MIC ([3]; Streptococcus pyogenes Aronson, in vitro, read-out: MIC) is reported as 0.1 µg/mL (≈ 0.307 µM). The MIC ([4]; Streptococcus pneumoniae III/84, in vitro, read-out: MIC) was 0.05 µg/mL (≈ 0.154 µM), the MIC ([5]; Streptococcus faecalis D 3, in vitro, read-out: MIC) was 32 µg/mL (≈ 98.4 µM) and the MIC ([6]; Neisseria meningitidis 1316, in vitro, read-out: MIC) was 0.05 µg/mL (≈ 0.154 µM). It also gave an MIC ([7]; Neisseria gonorrhoeae 1317-4, in vitro, read-out: MIC) of 0.01 µg/mL (≈ 0.0307 µM), an MIC ([8]; Haemophilus influenzae NCTC 4560, in vitro, read-out: MIC) of 2 µg/mL (≈ 6.15 µM) and an MIC ([9]; Escherichia coli 205, in vitro, read-out: MIC) of 1 µg/mL (≈ 3.07 µM). For the same molecule, the MIC [10] was 4 µg/mL (≈ 12.3 µM), the MIC ([11]; Escherichia coli 16, in vitro, read-out: MIC) was 16 µg/mL (≈ 49.2 µM) and the MIC [12] was 1 µg/mL (≈ 3.07 µM). The MIC [13] was 2 µg/mL (≈ 6.15 µM), the MIC ([14]; Klebsiella pneumoniae 327, in vitro, read-out: MIC) was 2 µg/mL (≈ 6.15 µM) and the MIC ([15]; Serratia marcescens 344, in vitro, read-out: MIC) was 16 µg/mL (≈ 49.2 µM). It also gave an MIC [16] of 16 µg/mL (≈ 49.2 µM), an MIC ([17]; Proteus mirabilis 774, in vitro, read-out: MIC) of 2 µg/mL (≈ 6.15 µM) and an MIC ([18]; Proteus mirabilis 1219, in vitro, read-out: MIC) of 4 µg/mL (≈ 12.3 µM). The MIC ([19]; Proteus rettgeri 856, in vitro, read-out: MIC) was 4 µg/mL (≈ 12.3 µM), the MIC ([20]; Proteus morganii 2359, in vitro, read-out: MIC) was 2 µg/mL (≈ 6.15 µM) and the MIC ([21]; Proteus morganii 1518, in vitro, read-out: MIC) was 8 µg/mL (≈ 24.6 µM). The MIC ([22]; Pseudomonas aeruginosa ATCC 12055, in vitro, read-out: MIC) was greater than 32 µg/mL, the MIC [23] was 2 µg/mL (≈ 6.15 µM) and the MIC [24] was 0.1 µg/mL (≈ 0.307 µM). For the same molecule, the MIC ([25]; Bacteroides fragilis L 01, in vitro, read-out: MIC) was 0.5 µg/mL (≈ 1.54 µM) and the ED50 ([26]; mouse, systemic infection by Staphylococcus aureus lOB, subcutaneous application, read-out: ED50) was 0.3 to 30 mg/kg.
